Experimental data published in ChEMBL document CHEMBL6103591, “Discovery of naphthoquinone-furo-piperidone derivatives as dual targeting agents of STAT3 and NQO1 for the treatment of breast cancer” (Eur J Med Chem, 2025).
pIC50: −log10 of the molar value. Activity calls are given as the source filed them. The rule behind the calls is not given here.

Columns and labels:
MDA-MB-231 [1] = assay: Antiproliferative activity against human MDA-MB-231 cells assessed as reduction in cell viability incubated for 48 hrs by MTT assay; assay type: functional, cell-based; settings: MDA-MB-231, 48 h
MDA-MB-468 [2] = assay: Antiproliferative activity against human MDA-MB-468 cells assessed as reduction in cell viability incubated for 48 hrs by MTT assay; assay type: functional, cell-based; settings: MDA-MB-468, 48 h
[3] = molecular target: T1, Signal transducer and activator of transcription 3 (Homo sapiens, UniProt P40763); assay: Inhibition of STAT3 activation in human MDA-MB-231 cells assessed as reduction in STAT3 phosphorylation at Tyr705 residue at 1 uM measured after 24 hrs by Western blot analysis relative to control; assay type: cell-based
T1 sequence (P40763 whole entry): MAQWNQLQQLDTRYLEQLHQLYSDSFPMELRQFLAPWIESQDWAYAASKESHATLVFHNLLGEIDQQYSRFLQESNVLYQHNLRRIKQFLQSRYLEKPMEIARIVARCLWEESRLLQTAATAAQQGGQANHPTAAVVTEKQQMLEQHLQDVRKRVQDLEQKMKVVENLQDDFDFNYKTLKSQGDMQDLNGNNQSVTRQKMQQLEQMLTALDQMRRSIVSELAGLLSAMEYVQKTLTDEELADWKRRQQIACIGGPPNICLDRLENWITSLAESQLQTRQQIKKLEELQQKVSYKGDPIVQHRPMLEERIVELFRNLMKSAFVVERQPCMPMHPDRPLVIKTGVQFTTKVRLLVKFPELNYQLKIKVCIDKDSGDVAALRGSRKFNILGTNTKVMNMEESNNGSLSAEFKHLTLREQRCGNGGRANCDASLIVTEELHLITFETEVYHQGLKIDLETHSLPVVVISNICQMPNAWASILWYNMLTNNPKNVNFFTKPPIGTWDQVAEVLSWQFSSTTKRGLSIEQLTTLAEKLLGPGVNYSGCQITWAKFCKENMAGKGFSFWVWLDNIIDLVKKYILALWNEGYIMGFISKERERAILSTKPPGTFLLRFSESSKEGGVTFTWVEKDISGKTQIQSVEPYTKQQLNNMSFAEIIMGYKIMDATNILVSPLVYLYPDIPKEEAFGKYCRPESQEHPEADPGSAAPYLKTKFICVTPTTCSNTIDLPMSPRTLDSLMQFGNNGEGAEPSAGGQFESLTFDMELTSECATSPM

MDA-MB-231 [4] = assay: Downregulation of total STAT3 expression in human MDA-MB-231 cells at 1 uM incubated for 24 hrs by Western blotting analysis; assay type: functional, cell-based
MDA-MB-231 [5] = assay: Induction of apoptosis in human MDA-MB-231 cells assessed as early apoptotic cells at 3 uM measured after 24 hrs by Annexin V/propidium iodide (PI) double staining based flow cytometric analysis (reference value: 1.98 %); assay type: functional
MDA-MB-231 [6] = assay: Induction of apoptosis in human MDA-MB-231 cells assessed as late apoptotic cells at 3 uM measured after 24 hrs by Annexin V/propidium iodide (PI) double staining based flow cytometric analysis (reference value: 2.22 %); assay type: functional
MDA-MB-468 [7] = assay: Induction of apoptosis in human MDA-MB-468 cells assessed as early apoptotic cells at 3 uM measured after 24 hrs by Annexin V/propidium iodide (PI) double staining based flow cytometric analysis (reference value: 2.94 %); assay type: functional
MDA-MB-468 [8] = assay: Induction of apoptosis in human MDA-MB-468 cells assessed as late apoptotic cells at 3 uM measured after 24 hrs by Annexin V/propidium iodide (PI) double staining based flow cytometric analysis (reference value: 2.24 %); assay type: functional
MCF7 [9] = assay: Antiproliferative activity against human MCF7 cells incubated for 48 hrs by MTT assay; assay type: functional, cell-based; settings: MCF7, 48 h
MDA-MB-231 [10] = assay: Antiproliferative activity against human MDA-MB-231 cells transfected with shSTAT3 RNA at 1.5 uM incubated for 24 hrs by MTT assay; assay type: functional, cell-based
MDA-MB-468 [11] = assay: Antiproliferative activity against human MDA-MB-468 cells transfected with shSTAT3 RNA at 1.5 uM incubated for 24 hrs by MTT assay; assay type: functional, cell-based
[12] = molecular target: T1, Signal transducer and activator of transcription 3; assay: Inhibition of STAT3 in human MDA-MB-231 cells assessed as downregulation of c-Myc expression measured after 24 hrs by Western blot analysis; assay type: cell-based; settings: dose 0.6-2.5 µM
[13] = molecular target: T1, Signal transducer and activator of transcription 3; assay: Inhibition of STAT3 in human MDA-MB-231 cells assessed as downregulation of Cyclin-D1 expression measured after 24 hrs by Western blot analysis; assay type: cell-based; settings: dose 0.6-2.5 µM
[14] = molecular target: T1, Signal transducer and activator of transcription 3; assay: Inhibition of STAT3 in human MDA-MB-231 cells assessed as downregulation of survivin expression measured after 24 hrs by Western blot analysis; assay type: cell-based; settings: dose 0.6-2.5 µM
MDA-MB-231 [15] = assay: Effect on STAT1 expression level in human MDA-MB-231 cells at 0.6 to 2.5 uM incubated for 24 hrs by Western blot analysis; assay type: functional, cell-based; settings: dose 0.6-2.5 µM
MDA-MB-231 [16] = assay: Effect on STAT5 expression level in human MDA-MB-231 cells at 0.6 to 2.5 uM incubated for 24 hrs by Western blot analysis; assay type: functional, cell-based; settings: dose 0.6-2.5 µM
[17] = molecular target: T2, Signal transducer and activator of transcription 1-alpha/beta (Homo sapiens) (UniProt P42224); assay: Inhibition of STAT1 phosphorylation at Tyr701 residue in human MDA-MB-231 cells at 0.6 to 2.5 uM incubated for 24 hrs by Western blot analysis; assay type: cell-based; settings: dose 0.6-2.5 µM
T2 sequence (whole entry): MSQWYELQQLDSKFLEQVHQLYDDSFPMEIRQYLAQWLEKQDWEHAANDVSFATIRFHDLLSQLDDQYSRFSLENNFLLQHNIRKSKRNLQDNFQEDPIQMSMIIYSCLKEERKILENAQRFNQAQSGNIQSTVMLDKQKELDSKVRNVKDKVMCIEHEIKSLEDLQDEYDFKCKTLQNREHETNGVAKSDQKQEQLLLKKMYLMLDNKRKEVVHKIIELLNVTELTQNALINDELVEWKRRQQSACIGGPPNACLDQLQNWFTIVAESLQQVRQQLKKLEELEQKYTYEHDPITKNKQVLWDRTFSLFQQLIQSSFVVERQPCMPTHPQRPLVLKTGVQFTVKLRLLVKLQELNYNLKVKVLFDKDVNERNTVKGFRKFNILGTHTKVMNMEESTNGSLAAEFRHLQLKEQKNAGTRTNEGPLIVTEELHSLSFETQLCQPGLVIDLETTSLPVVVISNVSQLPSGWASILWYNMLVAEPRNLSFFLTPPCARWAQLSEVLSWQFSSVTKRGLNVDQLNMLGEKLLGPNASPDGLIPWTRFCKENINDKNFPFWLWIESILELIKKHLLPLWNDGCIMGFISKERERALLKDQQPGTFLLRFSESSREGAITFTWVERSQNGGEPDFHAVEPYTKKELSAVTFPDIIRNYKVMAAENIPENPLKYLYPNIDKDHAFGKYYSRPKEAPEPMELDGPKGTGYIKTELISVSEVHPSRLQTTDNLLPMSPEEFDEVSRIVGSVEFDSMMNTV

MDA-MB-231 [18] = assay: Inhibition of STAT5 phosphorylation at Tyr694 residue in human MDA-MB-231 cells at 0.6 to 2.5 uM incubated for 24 hrs by Western blot analysis; assay type: cell-based; settings: dose 0.6-2.5 µM
[19] = molecular target: T1, Signal transducer and activator of transcription 3; assay: Inhibition of phosphorylated STAT3 nuclear translocation in human MDA-MB-231 cells incubated for 6 hrs by immunofluorescence assay; assay type: cell-based; settings: dose 1.5-3 µM
[20] = molecular target: T1, Signal transducer and activator of transcription 3; assay: Inhibition of phosphorylated STAT3 nuclear translocation in human MDA-MB-468 cells incubated for 6 hrs by immunofluorescence assay; assay type: cell-based; settings: dose 1.5-3 µM
MDA-MB-231 [21] = assay: Inhibition of colony formation in human MDA-MB-231 cells at 3 uM incubated for 10 to 15 days by crystal violet staining based microscopic analysis; assay type: functional, cell-based; settings: time 10-15 day
MDA-MB-468 [22] = assay: Inhibition of colony formation in human MDA-MB-468 cells at 3 uM incubated for 10 to 15 days by crystal violet staining based microscopic analysis; assay type: functional, cell-based; settings: time 10-15 day
MDA-MB-231 [23] = assay: Antimetastatic activity against human MDA-MB-231 cells assessed as reduction in cell invasion incubated for 24 hrs by crystal violet staining based transwell invasion assay; assay type: functional; settings: dose 0.1875-3 µM
MDA-MB-231 [24] = assay: Antimetastatic activity against human MDA-MB-231 cells assessed as reduction in cell migration incubated for 24 hrs by crystal violet staining based transwell assay; assay type: functional; settings: dose 0.1875-3 µM
MDA-MB-231 [25] = assay: Induction of apoptosis in human MDA-MB-231 cells assessed as increase in cleaved PARP level at 1.5 to 3 uM by Western blotting analysis; assay type: functional, cell-based; settings: dose 1.5-3 µM
MDA-MB-231 [26] = assay: Induction of apoptosis in human MDA-MB-231 cells assessed as increase in cleaved-caspase 3 level at 1.5 to 3 uM by Western blotting analysis; assay type: functional, cell-based; settings: dose 1.5-3 µM
MDA-MB-231 [27] = assay: Induction of apoptosis in human MDA-MB-231 cells assessed as increase in Bax level at 1.5 to 3 uM by Western blotting analysis; assay type: functional, cell-based; settings: dose 1.5-3 µM
MDA-MB-468 [28] = assay: Induction of apoptosis in human MDA-MB-468 cells assessed as increase in cleaved PARP level at 1.5 to 3 uM by Western blotting analysis; assay type: functional, cell-based; settings: dose 1.5-3 µM, time 24.0 hrs
MDA-MB-468 [29] = assay: Induction of apoptosis in human MDA-MB-468 cells assessed as increase in cleaved-caspase 3 level at 1.5 to 3 uM by Western blotting analysis; assay type: functional, cell-based; settings: dose 1.5-3 µM
MDA-MB-468 [30] = assay: Induction of apoptosis in human MDA-MB-468 cells assessed as increase in Bax level at 1.5 to 3 uM by Western blotting analysis; assay type: functional, cell-based; settings: dose 1.5-3 µM
MCF7 [31] = assay: Induction of ROS generation in NQO1-rich human MCF7 cells assessed as increase in intracellular ROS level by DCFH-DA staining based confocal microscopic analysis; assay type: functional, cell-based; settings: dose 1.25-2.5 µM
MCF7 [32] = assay: Induction of ROS generation in NQO1-rich human MCF7 cells assessed as increase in intracellular ROS level at 1.25 uM in presence of DIC by DCFH-DA staining based confocal microscopic analysis; assay type: functional, cell-based
MCF7 [33] = assay: Induction of DNA damage in human MCF7 cells at 1.25 uM incubated for 24 hrs by fluorescence microscopy based alkaline comet assay; assay type: functional, cell-based
MDA-MB-231 [34] = assay: Antitumor activity against human MDA-MB-231 cells xenografted in female BALB/c nude mouse assessed as reduction in tumor volume at 10 mg/kg, ip administered daily and measured every 2 days for 21 days; assay type: functional, organism-based; settings: time 21.0 day
MDA-MB-231 [35] = assay: Antitumor activity against human MDA-MB-231 cells xenografted in female BALB/c nude mouse assessed as reduction in tumor weight at 10 mg/kg, ip administered daily and measured every 2 days for 21 days; assay type: functional, organism-based; settings: time 21.0 day
MDA-MB-231 [36] = assay: Antitumor activity against human MDA-MB-231 cells xenografted in female BALB/c nude mouse assessed as increase in TUNEL-positive cells in tumor tissue at 10 mg/kg, ip administered daily and measured every 2 days for 21 days by immunofluorescence analysis; assay type: functional, organism-based; settings: time 21.0 day
Mus musculus = assay: In vivo inhibition of STAT3 in female BALB/c nude mouse xenografted with human MDA-MB-231 cells assessed as decrease in p-STAT3 level in tumor tissue at 10 mg/kg, ip administered daily and measured every 2 days for 21 days by IHC staining analysis; assay type: functional, organism-based; settings: time 21.0 day
MCF7 [37] = assay: Induction of DNA damage in human MCF7 cells at 1.25 uM incubated for 24 hrs in presence of DIC by fluorescence microscopy based alkaline comet assay; assay type: functional, cell-based

O=C1C(=O)c2c(oc3c2CCN(CCCN2CCCCC2)C3=O)-c2ccccc21
pIC50 (MDA-MB-231 [1]): 6.48
pIC50 (MDA-MB-468 [2]): 5.92
inhibition [3]: 100%
Activity (MDA-MB-231 [4]): Active

CC(=O)c1cc2c(o1)C(=O)c1ccccc1C2=O [NAPABUCASIN]
pIC50 (MDA-MB-231 [1]): 5.46
pIC50 (MDA-MB-468 [2]): 5.44
Activity (MDA-MB-231 [5]): 3.34%
Activity (MDA-MB-231 [6]): 6.23%
Activity (MDA-MB-468 [7]): 8.87%
Activity (MDA-MB-468 [8]): 6%

CC1(C)CCC2=C(O1)c1ccccc1C(=O)C2=O [LAPACHONE]
pIC50 (MCF7 [9]): 5.40

O=C1C(=O)c2c(oc3c2CCN(CCN2CCCCC2)C3=O)-c2ccccc21
inhibition [3]: Active
Activity (MDA-MB-231 [10]): Active; Less Sensitivity Observed
Activity (MDA-MB-468 [11]): Active; Less Sensitivity Observed
inhibition [12]: Dose-dependent-effect
inhibition [13]: Dose-dependent-effect
inhibition [14]: Dose-dependent-effect
Activity (MDA-MB-231 [15]): inactive
Activity (MDA-MB-231 [16]): inactive
inhibition [17]: inactive
inhibition (MDA-MB-231 [18]): inactive
inhibition [19]: Dose-dependent-effect
inhibition [20]: Dose-dependent-effect
inhibition (MDA-MB-231 [21]): Active
inhibition (MDA-MB-468 [22]): Active
Activity (MDA-MB-231 [23]): Dose-dependent-effect
Activity (MDA-MB-231 [24]): Dose-dependent-effect
Activity (MDA-MB-231 [25]): Active
Activity (MDA-MB-231 [26]): Active
Activity (MDA-MB-231 [27]): Active
Activity (MDA-MB-468 [28]): Active
Activity (MDA-MB-468 [29]): Active
Activity (MDA-MB-468 [30]): Active
Activity (MCF7 [31]): Dose-dependent-effect
Activity (MCF7 [32]): inactive
Activity (MCF7 [33]): Active
Activity (MDA-MB-231 [34]): Active
Activity (MDA-MB-231 [35]): Active
Activity (MDA-MB-231 [36]): Active
inhibition (Mus musculus): Active
Activity (MCF7 [37]): inactive
